A word on the stoichiometry N: it is the number of molecules, sites or subunits per partner or assembly.

For data set [1], the target named is T1, HadA (Ralstonia pickettii, UniProt Q53008).
T1 construct: recombinant, E. coli plasmid hadAWT-pET-11a; homotetramer (dimer of dimers); residues 1-517 by domain borders
T1 sequence (Q53008 1-517): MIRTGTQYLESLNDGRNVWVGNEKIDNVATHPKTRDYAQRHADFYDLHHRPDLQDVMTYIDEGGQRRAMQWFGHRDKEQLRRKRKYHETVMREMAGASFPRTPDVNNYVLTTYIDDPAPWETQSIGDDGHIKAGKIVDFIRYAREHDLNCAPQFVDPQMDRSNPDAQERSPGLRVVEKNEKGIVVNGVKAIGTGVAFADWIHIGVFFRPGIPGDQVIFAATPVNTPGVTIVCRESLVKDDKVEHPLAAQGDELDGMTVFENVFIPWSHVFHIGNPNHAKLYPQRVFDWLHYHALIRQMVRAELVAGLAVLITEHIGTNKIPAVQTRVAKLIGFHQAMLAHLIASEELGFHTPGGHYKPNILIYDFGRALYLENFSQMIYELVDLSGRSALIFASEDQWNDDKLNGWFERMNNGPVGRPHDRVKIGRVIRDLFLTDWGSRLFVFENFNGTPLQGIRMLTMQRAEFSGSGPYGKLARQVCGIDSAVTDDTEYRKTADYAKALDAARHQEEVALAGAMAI
In words: stopped-flow and HPLC of hydroquinone product. In kind it is biochemical. As to conditions: 0.1-6.4 mM 4CP preincubated with enzyme; 25 μM FADH-; 20 mM Hepes pH 7.5; substrate inhibition by dead-end complex.

Data set [2] concerns the target T1, HadA. In words: X-ray crystal structure, […] Å. In kind it is binding.
Data set [3] concerns the molecule itself. In words: crystal structure; HadA (0.3 mM) mixed with FADH- (12 mM) and 4NP (12 mM) in an anaerobic glove box, incubated 2 h; microbatch at 25 °C, sodium citrate, PEG3350, 5% trifluoroethanol, 0.1 M Bis-Tris propane pH 6.5; data at 100 K; molecular replacement with apo-HadA (PDB 6JHM chain A).

Changes are numbered by the printed parent chain.

`Oc1ccc(Cl)cc1` [4-chlorophenol]: the “stopped-flow and HPLC of hydroquinone product” value in data set [1] was “increasing the 4CP concentration significantly altered the kinetics of the reaction”.
In the case of `O=[N+]([O-])c1ccc(O)cc1` [4-nitrophenol], in data set [2] (ternary complex with FADH-, active site of subunit A, second site at C/D dimer interface (two 4NP, quadruple π-stacking)), the “X-ray crystal structure, 2.3 Å” value is “only one 4NP molecule could be clearly seen in the expected pocket of subunit A”.
For `Cc1cc2c(cc1C)N(C[C@H](O)[C@H](O)[C@H](O)COP(=O)(O)OP(=O)(O)OC[C@H]1O[C@@H](n3cnc4c(N)ncnc43)[C@H](O)[C@@H]1O)c1[nH]c(=O)[nH]c(=O)c1N2` [FADH^–], the “X-ray crystal structure, 2.3 Å” value in data set [2] (ternary complex with 4NP) is “strong electron densities could be observed for all four FADH^– molecules”.

B1: wild-type HadA, flavin-dependent monooxygenase/dehalogenase component from Ralstonia pickettii (enzyme, UniProt Q53008 1-517, looked up)
chain: T1 sequence (Q53008 1-517)
notes: HadA monooxygenase of the had pathway, Ralstonia pickettii; each protomer is described as N-terminal domain (residues 1-146), beta-sheet domain (147-275) and C-terminal domain (276-517); also called HadAWT; HadA monooxygenase; source: plasmid hadAWT-pET-11a
B1: in data set [3], the “stoichiometry N” value worked out at 4.

B2: HadA Phe441Val variant (enzyme)
chain: T1 sequence (Q53008 1-517) with F441V
notes: HadA monooxygenase, Ralstonia pickettii, with Phe441Val; same limits as the wild type (domains described over residues 1-517); source: site-directed mutagenesis of hadAWT-pET-11a
Turning to B2, the binding result in data set [3] is given as “binds”.
